Laboratory results reported in patent US4772599A, “Benzodiazepine derivatives and their preparation and use” (A/S Ferrosan, priority 1986, dated 1988).

Test system: benzodiazepine receptors
Assay: In vivo displacement of 3H-flunitrazepam from brain benzodiazepine receptors
Settings: mice (female, NMR), test substance i.p. 15 min before 3H-FNM i.v.; dose inhibiting 50% of specific 3H-FNM binding in forebrain
Description: The pharmaceutical properties of the compounds of the invention can be illustrated by determining their capability for displacing radioactivity labelled flunitrazepam from benzodiazepine receptors.
The displacement activity of the compounds of the invention may be found by determining the ED50 value. The ED50 value represents the dose (mg/kg) of a test substance which causes the specific binding of flunitrazepam to benzodiazepine receptors in a living brain to be reduced to 50% of the control value.
Such an in vivo test is carried out as follow:
Principle. Twenty minutes after a dose of ^3 H-flunitrazepam (^3 H-FNM) (200 μCi/kg, i.v.) the amount of specific ^3 H-FNM binding to brain benzodiazepine receptors has reached its maximal value.
Test procedure. Suspensions of test substances (2 mg/ml) are prepared in 5% Duphasol-X (TM Duphar, caster oil-ethylene oxide derivative for emulsifying and solubilizing oil and other water-insoluble substances) by sonification for 10 min using a Branson B15 microtip ultrasonifier (setting 7). Groups of three mice (female, NMR, 18-22 grams) are injected with the test substance at 100 mg/kg intraperitoneally. Fifteen minutes after test substance administration the mice are challenged with 4 μCi intravenously of ^3 H-FNM (70-90 Ci/mole) in 200 μl physiological saline. Twenty minutes after ^3 H-FNM administration mice are sacrificed by decapitation, the forebrains rapidly excised (within 30 sec) and homogenized in 12 ml of icecold 25 mM KH2 PO4, pH 7.1, using an Ultra-Turrax™ homogenizer fitted with an N 10 shaft. Two aliquots of 1 ml are immediately filtered through Whatman GF/C glassfibre filters and washed with 2×5 ml of the above mentioned buffer. The amounts of radioactivity on the filters are determined by conventional scintillation counting. One group of untreated mice serves as control. One to three mice are injected with 25 μg/kg clonazepam i.p. 30 minutes before ^3 H-FNM to determine the amount of non-specific ^3 H-FNM binding, which should be between 8-15% of total binding. When doses of 100 mg/kg inhibit more than 50% of specific ^3 H-flunitrazepam binding, test substances are administered in doses, which are factors of 3.16 times lower than 100 mg/kg. The ED50 for a test substance is defined as that dose which inhibits 50% of specific ^3 H-FNM binding. Specific binding is the amount of binding in controls minus the amount of binding in clonazepam-treated mice.
Results. The ED50 value is determined from dose response curves. If only one dose of test substance is administered the ED50 value is calculated as follows, provided that the inhibition of specific binding is within the range of 25-75%: [formula] where Co is specific binding in controls of Cx is specific binding in mice treated with test substance.

SMILES	In vivo displacement activity: ED50 [mg/kg]
COC(=O)c1cccc2c1C(=O)N(C)Cc1c(-c3nc(C4CC4)no3)ncn1-2	0.4
CCOC(=O)c1cccc2c1C(=O)N(C)Cc1c(-c3nc(C4CC4)no3)ncn1-2	1.4
CCc1noc(-c2cccc3c2C(=O)N(C)Cc2c(-c4nc(CC)no4)ncn2-3)n1	1.3
Cc1nc(-c2ncn3c2CN(C)C(=O)c2c(-c4nc(-c5ccccc5)no4)cccc2-3)no1	1.7
CCOC(=O)c1cccc2c1C(=O)N(C)Cc1c(-c3noc(C)n3)ncn1-2	1.5
